Three compounds from patent publication US9731001B2, “Three-dimensional cavities of dendritic cell immunoreceptor (DCIR), compounds binding thereto and therapeutic applications related to inhibition of human immunodeficiency virus type-1 (HIV-1)” (priority 2011, dated 2017) can be followed below.

Series [1] concerns HIV-1 (NL4-3). Briefly: HIV-1 binding/entry on H2O2-treated (apoptotic) CD4TL (p24). The series is classed as cell-based. Conditions: CD4TL treated with 30 μM H2O2 16 h; NL4-3 1 h; FIG. 8 panel A. How it is done: FIGS. 8A and 8B are bar graphs showing the impact of DCIR inhibitors on HIV-1 transmission by apoptotic CD4^+ T cells. Target CD4^+ T cells (1×10^6) were treated for 16 h with H2O2 (30 μM) to induce the surface expression of DCIR. Cells were treated with site A inhibitors (1 and 4) or site B inhibitors (1 and 2) or vehicle (DMSO). Panel A: Cells were next exposed to NL4-3 (100 ng/ml of p24) for 1 h at 37° C., extensively washed to remove unadsorbed virions before assessing p24 content. Panel B: Cells were first incubated with NL4-3 (100 ng/ml of p24) for 2 h at 37° C., washed extensively to remove unadsorbed virions and cultured in complete RPMI-1640 supplemented with rhIL-2 for the time indicated. Cell-free supernatants were then collected and assayed for p24 content. Data shown correspond to the means±sem of 3 independent experiments performed in triplicate for panel A and the means±SEM of 2 independent experiments for panel B. The asterisks denotes statistically significant data (*, P<0.05; **, P<0.01; ***, P<0.001).
Apoptosis was induced in CD4TL activated with 30 μM H2O2 for 16 h before performing the following experimental procedures. To assay binding/entry, cells (1×10^6) were incubated for 60 min at 37° C. with NL4-3 (100 ng of p24). After three extensive washes with PBS to remove un-adsorbed virus, HIV-1 binding was quantified by estimating p24 content. […]

The subject of series [2] is DCIR. Description: DCIR expression on Th17 CD4 T cells. The series is classed as cell-based, human. As to conditions: 10 uM. How it is done: (§1) FIGS. 14A-14F are a bar graphs showing the impact of the DCIR-EPS inhibitor (Cpd B2) on viability and apoptosis of TH17 polarized CD4 T cells or PHA-L/activated CD4T cells according to Example 8. Polarized CD4 TH17 cells (left panels) or PHA-L/IL-2 activated CD4 T cells (right panels) were either untreated or treated with 10 μM of DCIR-EPS inhibitor for 10 min at 37° C. Cells were then contacted with NL4-3BalEnv for 2 hrs and washed three times with PBS to remove non-adsorbed virus. Cells were then incubated for 10 days and toxicity was measured using the MTT assay (upper panels). In parallel, cells were incubated for 24 hrs and stained with Z-Vad-FMK FITC Abs to measure apoptosis) (middle panels) or with DCIR Abs lower panels).
(§2) After observing the inhibition of p24 content in Th17 cells by the DCIR inhibitor (Cpd B2), the impact of the DCIR inhibitor on cell viability and apoptosis was determined (FIG. 14). Polarized CD4 Th17 cells (FIG. 14A, 14C, 14E) or PHA-L/IL-2 CD4T cells (FIGS. 14B, 14D, 14F) were either untreated (DMSO) or treated with 10 uM of DCIR inhibitor for 10 minutes at 37° C. and then incubated with NL4-3BalEnv or mock virus for 2 hours. […] DCIR expression on Th17 CD4 T cells and PHA-L/IL-2 activated CD4 T cells was measured with or without treatment with the DCIR inhibitor (FIGS. 14E, 14F). […]

In series [3] the test system is PHA-L/IL-2 CD4 T cells. Briefly: Apoptosis (Z-Vad-FMK FITC), PHA-L/IL-2 CD4 T cells. The series is classed as cell-based, human. Conditions: 10 uM, 24 hrs. How it is done:
as §1, §2

Series [4] has as its system Th17 CD4 T cells. Description: Apoptosis (Z-Vad-FMK FITC), Th17 CD4 T cells. The class given is cell-based, human. As to conditions: 10 uM, 24 hrs. How it is done:
as §1, §2

Series [5] deals with DCIR. Description: DCIR expression on PHA-L/IL-2 activated CD4 T cells. The series is classed as cell-based, human. Conditions: 10 uM. How it is done: as §1, §2
The subject of series [6] is HIV-1 (NL4-3BalEnv). Description: HIV replication in PHA/IL-2 activated CD4T cells (p24). The class given is cell-based. As to conditions: 10 μM. How it is done:
(§3) FIGS. 13A and 13B are a bar graphs showing impact of the DCIR-EPS inhibitor (Cpd B2) on HIV replication by activated Th17 polarized CD4T cells, according to Example 8. Polarized CD4 Th17 cells (FIG. 13A) and PHA/IL-2 activated CD4T cells (FIG. 13B) were either untreated or treated with 10 μM of DCIR-EPS inhibitor (Cpd B2) for 10 min at 37° C. Cells were then exposed to NL4-3BalEnv for 2 hrs. After three washes with PBS to remove non-adsorbed virus, cells were cultured during 10 days. Viral replication was quantified by measuring the HIV-p24 content in culture supernatants. Data represent means±SD of triplicate samples from the same patient. Asterisks denote statistically significant differences (**, P<0.01), (*, P<0.05).
(§4) It was assessed whether the DCIR inhibitor (Compound B2) could reduce viral production. Polarized Th17 CD4T cells (FIG. 13A) and PHA/IL-2 activated CD4T cells (FIG. 13B) were pretreated or not with DCIR inhibitor (Cpd B2) before being put into contact with NL4-3BalEnv. Cells were washed and incubated for 10 days and then p24 content was measured. […] Prevention of Th17 infection could be contributed to maintain an adequate intestinal homeostasis.

The subject of series [7] is Polarized CD4 Th17 cells. Description: Toxicity by MTT assay, polarized CD4 Th17 cells. The series is classed as cell-based, human. Conditions: Th17 CD4T cells; 10 uM; 10 days. How it is done:
as §1, §2

For series [8], the system named is PHA-L/IL-2 activated CD4 T cells. Briefly: Toxicity by MTT assay, PHA-L/IL-2 activated CD4 T cells. The class given is cell-based, human. Conditions: 10 uM, 10 days. How it is done:
as §1, §2

Series [9] deals with HIV-1 (NL4-3BalEnv). Description: HIV replication in polarized Th17 CD4T cells (p24). The class given is cell-based. Conditions: 10 μM, 3, 7 and 10 days of incubation. How it is done:
as §3, §4

Regarding `O=C(c1ccccc1)c1cc2ccccc2o1` [Compound B1, 1-benzofuran-2-yl(phenyl)methanone], the “decrease of HIV-1 attachment to H2O2 treated cells” value in series [1] is given as roughly 40%.
With `Cc1ccc(/N=[N+](\[O-])c2ccc(C)cc2)cc1` [Compound B2, 1-methyl-4-[(4-methylphenyl)-NNO-azoxy]benzene], the DCIR expression result in series [2] is given as “no difference in DCIR expression”; in series [5] it was “marked reduction in DCIR expression”. The figures for the apoptosis entry in [3] and in [4] were “underwent less apoptosis” and “did not have any impact on apoptosis”, respectively. In addition, the p24 content entry in [6] (after 3 and 7 days) was “non-significant trend for reduction”; in series [6] (after 10 days), “significant reduction”; in [9], “significantly reduced p24 content”. The “toxic effect (MTT assay)” value in [7] and in series [8] was “did not have a toxic effect” throughout.
With `O=C(/C=C/C=C/c1ccccc1)c1ccccc1` [Compound A1, 1,5-diphenyl-2,4-pentadien-1-one], the “decrease of HIV-1 attachment to H2O2 treated cells” value in series [1] is given as “about 50%”.
